Experimental data published in the kinase profiling compilation of Christmann-Franck et al. (2016).

Legend:
Assay in all cases: radiometric filter-binding kinase assay, Kinase HotSpot
Conditions in all cases: compound 0.5 µM; ATP 10 µM
[1] = target: RPS6KA2 KD1 KD2 (human) (UniProt Q15349)
[2] = target: PRKD2 (human) (UniProt Q9BZL6)
[3] = target: IRAK4 (human) (UniProt Q9NWZ3)
[4] = target: EPHA7 (human) (UniProt Q15375)
[5] = target: CAMK1 (human) (UniProt Q14012)
[6] = target: CLK3 (human) (UniProt P49761)
[7] = target: YES1 (human) (UniProt P07947)
[8] = target: LRRK2 (human) (UniProt Q5S007)
[9] = target: MAP3K2 (human) (UniProt Q9Y2U5)
[10] = target: PRKACA (human) (UniProt P17612)
[11] = target: CDK5 CDK5R1 p25 (human) (UniProt Q00535+Q15078)
[12] = target: GSK3A (human) (UniProt P49840)
[13] = target: STK33 (human) (UniProt Q9BYT3)
[14] = target: TYK2 JH1 catalytic (human) (UniProt P29597)
[15] = target: PLK1 (human) (UniProt P53350)
[16] = target: CDK4 CCND1 (human) (UniProt P24385+P11802)
[17] = target: EPHA3 (human) (UniProt P29320)
[18] = target: EPHB1 (human) (UniProt P54762)
[19] = target: MAP3K14 (human) (UniProt Q99558)
[20] = target: SGK3 (human) (UniProt Q96BR1)
[21] = target: MARK3 (human) (UniProt P27448)
[22] = target: MAP3K8 (human) (UniProt P41279)
[23] = target: DYRK3 (human) (UniProt O43781)
[24] = target: CLK1 (human) (UniProt P49759)
[25] = target: TGFBR2 (human) (UniProt P37173)
[26] = target: STK39 (human) (UniProt Q9UEW8)
[27] = target: MAP2K1 (human) (UniProt Q02750)
[28] = target: PKN1 (human) (UniProt Q16512)
[29] = target: PBK (human) (UniProt Q96KB5)
[30] = target: PRKCI (human) (UniProt P41743)
[31] = target: MAP3K10 (human) (UniProt Q02779)
[32] = target: CSNK1G1 (human) (UniProt Q9HCP0)
[33] = target: PIM1 (human) (UniProt P11309)
[34] = target: AURKA (human) (UniProt O14965)
[35] = target: RPS6KA6 KD1 KD2 (human) (UniProt Q9UK32)
[36] = target: MAP3K7 TAB1 (human) (UniProt O43318+Q15750)
[37] = target: MAP2K2 (human) (UniProt P36507)
[38] = target: HIPK3 (human) (UniProt Q9H422)
[39] = target: SRC (human) (UniProt P12931)
[40] = target: ACVR1B (human) (UniProt P36896)
[41] = target: TEC (human) (UniProt P42680)

TYK2 JH1 catalytic (human), sequence (P29597 whole entry, looked up): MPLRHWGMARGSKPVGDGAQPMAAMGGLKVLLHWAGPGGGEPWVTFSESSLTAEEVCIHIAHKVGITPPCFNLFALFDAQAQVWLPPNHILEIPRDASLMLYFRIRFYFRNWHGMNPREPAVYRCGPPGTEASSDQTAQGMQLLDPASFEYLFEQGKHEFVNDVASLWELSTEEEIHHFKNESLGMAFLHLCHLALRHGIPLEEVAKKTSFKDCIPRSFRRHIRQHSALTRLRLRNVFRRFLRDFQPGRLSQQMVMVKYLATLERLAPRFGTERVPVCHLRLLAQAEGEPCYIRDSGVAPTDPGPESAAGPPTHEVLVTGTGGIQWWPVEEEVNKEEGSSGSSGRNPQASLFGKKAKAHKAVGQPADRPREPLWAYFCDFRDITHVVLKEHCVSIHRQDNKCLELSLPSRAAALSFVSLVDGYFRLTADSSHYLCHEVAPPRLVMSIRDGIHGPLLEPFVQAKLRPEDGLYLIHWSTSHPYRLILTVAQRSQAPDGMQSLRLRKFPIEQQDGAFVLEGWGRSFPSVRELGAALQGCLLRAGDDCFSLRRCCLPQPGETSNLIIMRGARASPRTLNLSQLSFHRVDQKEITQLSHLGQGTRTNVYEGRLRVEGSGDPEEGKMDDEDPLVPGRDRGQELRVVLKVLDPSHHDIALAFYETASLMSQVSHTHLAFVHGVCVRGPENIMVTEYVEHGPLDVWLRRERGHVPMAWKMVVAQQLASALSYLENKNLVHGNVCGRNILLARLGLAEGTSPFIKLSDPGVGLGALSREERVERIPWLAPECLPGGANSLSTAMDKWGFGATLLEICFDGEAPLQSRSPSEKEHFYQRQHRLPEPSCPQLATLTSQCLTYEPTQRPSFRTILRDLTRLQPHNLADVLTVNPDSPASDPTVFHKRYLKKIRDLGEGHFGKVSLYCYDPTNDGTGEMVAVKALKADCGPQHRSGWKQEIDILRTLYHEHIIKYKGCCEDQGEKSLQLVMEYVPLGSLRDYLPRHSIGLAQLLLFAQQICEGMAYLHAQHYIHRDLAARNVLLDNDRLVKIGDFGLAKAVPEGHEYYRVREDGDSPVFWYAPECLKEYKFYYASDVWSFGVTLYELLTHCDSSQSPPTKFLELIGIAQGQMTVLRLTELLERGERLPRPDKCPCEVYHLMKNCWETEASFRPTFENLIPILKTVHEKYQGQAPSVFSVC
EPHA3 (human), sequence (P29320 whole entry, looked up): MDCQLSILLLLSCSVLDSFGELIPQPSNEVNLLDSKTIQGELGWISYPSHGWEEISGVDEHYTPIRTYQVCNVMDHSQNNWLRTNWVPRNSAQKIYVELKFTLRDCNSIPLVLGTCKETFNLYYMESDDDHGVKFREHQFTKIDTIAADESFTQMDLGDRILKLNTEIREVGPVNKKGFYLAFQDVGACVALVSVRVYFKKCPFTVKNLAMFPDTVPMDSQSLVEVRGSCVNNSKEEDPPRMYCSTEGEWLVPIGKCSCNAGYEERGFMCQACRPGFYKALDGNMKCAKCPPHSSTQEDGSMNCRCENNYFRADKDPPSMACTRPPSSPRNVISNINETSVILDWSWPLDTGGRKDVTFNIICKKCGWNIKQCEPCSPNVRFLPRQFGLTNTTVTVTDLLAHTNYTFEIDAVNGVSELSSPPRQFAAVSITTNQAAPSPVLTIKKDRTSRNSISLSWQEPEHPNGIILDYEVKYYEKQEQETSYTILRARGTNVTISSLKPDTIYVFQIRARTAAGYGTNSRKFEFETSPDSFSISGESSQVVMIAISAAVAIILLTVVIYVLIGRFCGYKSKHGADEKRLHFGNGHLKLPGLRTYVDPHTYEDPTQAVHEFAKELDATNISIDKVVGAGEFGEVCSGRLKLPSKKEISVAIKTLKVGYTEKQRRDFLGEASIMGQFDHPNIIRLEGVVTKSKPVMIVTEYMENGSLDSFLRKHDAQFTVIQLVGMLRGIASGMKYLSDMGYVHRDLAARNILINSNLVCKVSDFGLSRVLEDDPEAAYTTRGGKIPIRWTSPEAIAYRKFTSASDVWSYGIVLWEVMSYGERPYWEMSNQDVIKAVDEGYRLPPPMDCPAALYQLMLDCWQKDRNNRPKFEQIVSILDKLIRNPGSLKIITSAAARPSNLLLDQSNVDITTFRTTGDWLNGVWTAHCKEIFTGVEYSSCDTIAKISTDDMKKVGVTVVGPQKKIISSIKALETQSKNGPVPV
CDK4 CCND1 (human), sequence (P11802 whole entry, looked up): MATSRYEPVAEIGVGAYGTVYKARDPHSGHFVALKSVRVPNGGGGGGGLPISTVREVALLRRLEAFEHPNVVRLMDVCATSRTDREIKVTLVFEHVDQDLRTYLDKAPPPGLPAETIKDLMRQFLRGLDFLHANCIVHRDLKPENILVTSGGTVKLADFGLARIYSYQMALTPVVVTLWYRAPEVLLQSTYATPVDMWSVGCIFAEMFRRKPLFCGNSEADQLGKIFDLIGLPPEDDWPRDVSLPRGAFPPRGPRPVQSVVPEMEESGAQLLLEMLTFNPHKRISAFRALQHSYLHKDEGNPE
CDK4 CCND1 (human), sequence (P24385 whole entry, looked up): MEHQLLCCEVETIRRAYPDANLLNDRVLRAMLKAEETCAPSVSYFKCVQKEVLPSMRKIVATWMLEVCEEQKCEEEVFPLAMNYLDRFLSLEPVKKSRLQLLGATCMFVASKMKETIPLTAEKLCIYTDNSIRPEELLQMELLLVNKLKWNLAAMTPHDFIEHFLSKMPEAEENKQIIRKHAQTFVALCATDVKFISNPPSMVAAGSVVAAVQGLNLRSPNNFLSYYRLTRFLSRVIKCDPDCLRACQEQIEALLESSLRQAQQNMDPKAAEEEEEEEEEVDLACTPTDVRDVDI
PRKD2 (human), sequence (Q9BZL6 whole entry, looked up): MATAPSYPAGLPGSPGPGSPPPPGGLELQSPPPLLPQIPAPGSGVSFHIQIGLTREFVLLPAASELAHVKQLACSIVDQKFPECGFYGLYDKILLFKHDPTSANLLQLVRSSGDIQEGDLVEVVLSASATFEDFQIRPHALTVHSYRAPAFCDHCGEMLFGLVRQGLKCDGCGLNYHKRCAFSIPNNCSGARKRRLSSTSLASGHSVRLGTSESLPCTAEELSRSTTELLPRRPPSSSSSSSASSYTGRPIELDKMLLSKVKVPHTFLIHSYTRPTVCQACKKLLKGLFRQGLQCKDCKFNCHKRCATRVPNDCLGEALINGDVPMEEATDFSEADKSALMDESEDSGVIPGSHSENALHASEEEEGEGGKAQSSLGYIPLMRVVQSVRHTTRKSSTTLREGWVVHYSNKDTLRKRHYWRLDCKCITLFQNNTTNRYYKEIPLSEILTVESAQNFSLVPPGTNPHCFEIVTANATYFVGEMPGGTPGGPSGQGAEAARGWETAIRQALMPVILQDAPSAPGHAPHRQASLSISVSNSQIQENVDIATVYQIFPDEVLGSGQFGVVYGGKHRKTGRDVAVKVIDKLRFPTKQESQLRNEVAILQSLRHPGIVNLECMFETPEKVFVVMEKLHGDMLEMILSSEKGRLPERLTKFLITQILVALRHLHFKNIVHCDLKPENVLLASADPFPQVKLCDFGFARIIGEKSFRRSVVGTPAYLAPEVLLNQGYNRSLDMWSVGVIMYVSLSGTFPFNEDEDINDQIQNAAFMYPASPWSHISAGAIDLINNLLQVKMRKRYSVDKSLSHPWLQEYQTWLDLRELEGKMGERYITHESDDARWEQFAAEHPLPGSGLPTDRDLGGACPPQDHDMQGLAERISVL
YES1 (human), sequence (P07947 whole entry, looked up): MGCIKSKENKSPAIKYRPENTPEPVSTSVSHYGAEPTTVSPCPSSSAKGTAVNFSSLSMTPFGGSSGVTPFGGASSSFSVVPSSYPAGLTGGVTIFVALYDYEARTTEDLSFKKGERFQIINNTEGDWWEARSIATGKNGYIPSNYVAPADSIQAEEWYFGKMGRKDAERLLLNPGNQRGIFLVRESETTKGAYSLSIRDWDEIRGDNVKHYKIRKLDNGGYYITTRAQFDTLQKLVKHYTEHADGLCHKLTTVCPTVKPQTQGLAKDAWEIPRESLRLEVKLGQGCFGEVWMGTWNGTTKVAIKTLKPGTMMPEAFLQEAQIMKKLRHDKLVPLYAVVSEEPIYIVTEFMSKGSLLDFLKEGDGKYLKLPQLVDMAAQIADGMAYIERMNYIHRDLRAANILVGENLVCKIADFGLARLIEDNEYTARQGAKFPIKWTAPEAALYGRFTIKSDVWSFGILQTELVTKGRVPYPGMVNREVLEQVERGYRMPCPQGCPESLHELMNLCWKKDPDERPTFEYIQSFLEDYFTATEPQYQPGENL
MARK3 (human), sequence (P27448 whole entry, looked up): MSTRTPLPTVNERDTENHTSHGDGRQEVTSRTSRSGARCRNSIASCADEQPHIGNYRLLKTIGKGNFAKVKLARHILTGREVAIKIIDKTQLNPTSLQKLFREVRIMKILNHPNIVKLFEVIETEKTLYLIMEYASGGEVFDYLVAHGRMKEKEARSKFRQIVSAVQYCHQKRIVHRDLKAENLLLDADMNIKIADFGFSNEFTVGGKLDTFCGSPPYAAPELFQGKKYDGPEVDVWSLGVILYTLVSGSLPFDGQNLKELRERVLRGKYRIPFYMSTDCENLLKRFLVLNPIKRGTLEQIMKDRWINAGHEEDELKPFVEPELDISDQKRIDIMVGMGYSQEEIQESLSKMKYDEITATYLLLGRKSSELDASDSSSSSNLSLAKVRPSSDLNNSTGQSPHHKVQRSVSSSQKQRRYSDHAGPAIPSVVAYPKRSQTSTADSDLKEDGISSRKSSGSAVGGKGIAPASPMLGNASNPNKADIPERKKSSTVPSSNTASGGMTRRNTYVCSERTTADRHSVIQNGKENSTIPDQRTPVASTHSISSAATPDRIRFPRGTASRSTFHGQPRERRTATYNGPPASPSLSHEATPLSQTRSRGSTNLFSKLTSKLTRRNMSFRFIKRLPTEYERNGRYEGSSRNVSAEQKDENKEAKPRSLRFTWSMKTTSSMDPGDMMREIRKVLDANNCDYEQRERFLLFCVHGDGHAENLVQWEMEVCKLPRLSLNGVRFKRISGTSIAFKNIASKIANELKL

In the case of O=c1cc(-c2cccc3c2Sc2ccccc2S3)oc(N2CCOCC2)c1, the residual activity [1] is reported as 81.4%, the residual activity [2] is reported as 105% and the residual activity [3] is reported as 160%. For the same molecule, the residual activity [4] was 106%, the residual activity [5] was 94.2% and the residual activity [6] was 121%. The residual activity [7] was 89.4%, the residual activity [8] was 102% and the residual activity [9] was 92.7%. It also gave a residual activity [10] of 99.6%, a residual activity [11] of 96.8% and a residual activity [12] of 86.7%. For the same molecule, the residual activity [13] was 93.3%, the residual activity [14] was 95.8% and the residual activity [15] was 102%. It also gave a residual activity [16] of 112%, a residual activity [17] of 119% and a residual activity [18] of 110%. It also gave a residual activity [19] of 94.9%, a residual activity [20] of 98.6% and a residual activity [21] of 106%. It also gave a residual activity [22] of 103%, a residual activity [23] of 84.3% and a residual activity [24] of 103%. The residual activity [25] was 93.4%, the residual activity [26] was 84% and the residual activity [27] was 94.9%. It also gave a residual activity [28] of 94.4%, a residual activity [29] of 99.4% and a residual activity [30] of 103%. For the same molecule, the residual activity [31] was 95.9%, the residual activity [32] was 99.3% and the residual activity [33] was 77.6%. For the same molecule, the residual activity [34] was 91.7%, the residual activity [35] was 98.2% and the residual activity [36] was 84.5%. The residual activity [37] was 81.8%, the residual activity [38] was 105% and the residual activity [39] was 106%. The residual activity [40] was 114% and the residual activity [41] was 198%.

Cc1ccc(NC(=O)c2ccc(CN3CCN(C)CC3)cc2)cc1Nc1nc(-c2cccnc2)cs1 showed a residual activity [1] of 99.7%, a residual activity [2] of 98.2% and a residual activity [3] of 97.4%. It also gave a residual activity [4] of 99.7%, a residual activity [5] of 102% and a residual activity [6] of 93.6%. For the same molecule, the residual activity [7] was 50.7%, the residual activity [8] was 107% and the residual activity [9] was 102%. For the same molecule, the residual activity [10] was 104%, the residual activity [11] was 104% and the residual activity [12] was 101%. The residual activity [13] was 91.1%, the residual activity [14] was 101% and the residual activity [15] was 101%. It also gave a residual activity [16] of 94.1%, a residual activity [17] of 90.3% and a residual activity [18] of 94.9%. It also gave a residual activity [19] of 91%, a residual activity [20] of 95.6% and a residual activity [21] of 100%. It also gave a residual activity [22] of 91.5%, a residual activity [23] of 108% and a residual activity [24] of 101%. It also gave a residual activity [25] of 101%, a residual activity [26] of 94% and a residual activity [27] of 111%. For the same molecule, the residual activity [28] was 99.3%, the residual activity [29] was 99.6% and the residual activity [30] was 93.7%. It also gave a residual activity [31] of 102%, a residual activity [32] of 92.4% and a residual activity [33] of 86.4%. For the same molecule, the residual activity [34] was 105%, the residual activity [35] was 103% and the residual activity [36] was 98.6%. The residual activity [37] was 114%, the residual activity [38] was 101% and the residual activity [39] was 80%. The residual activity [40] was 99.8% and the residual activity [41] was 83.2%.
